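Cultured in 96-well plates, cells were exposed to test compound for 48 hours across five concentrations. Definition used: TGI = concentration required for complete inhibition of growth.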
Test system: RXF-631 renal
Assay: NCI-60 cell line screen, 48 h

SMILES: N#CC1(CCCI)CCCC1
- TGI: 3.23 µM

Source: PubChem BioAssay (NCI)
